Laboratory results: PubChem BioAssay (NCI)
“And” between values parts separate entries of the source, which are not always exact repeats. Equal entries are not always repeated.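 Interpolation was linear, between the two tested concentrations surrounding the appropriate level; five concentrations were tested over 48 hours in 96-well plates. GI50 marks 50% less growth. At the TGI there is no net growth.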

Tests used:
Experiment in all cases: growth of human tumour cells (NCI), 48 h
RPMI-8226 leukemia = test system: RPMI-8226 leukemia
IGROV1 ovarian = test system: IGROV1 ovarian
UO-31 renal = test system: UO-31 renal
OVCAR-5 ovarian = test system: OVCAR-5 ovarian
HT29 colon = test system: HT29 colon
NCI-H460 lung = test system: NCI-H460 lung
SNB-19 CNS = test system: SNB-19 CNS
TK-10 renal = test system: TK-10 renal
LOX IMVI melanoma = test system: LOX IMVI melanoma

SMILES | TGI (RPMI-8226 leukemia) [µM] | TGI (IGROV1 ovarian) | TGI (UO-31 renal) [µM] | TGI (OVCAR-5 ovarian) [µM] | TGI (HT29 colon) [µM] | TGI (NCI-H460 lung) [µM] | TGI (SNB-19 CNS) [µM] | GI50 (RPMI-8226 leukemia) [µM] | GI50 (IGROV1 ovarian) [µM] | GI50 (TK-10 renal) [µM] | TGI (TK-10 renal) | GI50 (UO-31 renal) | GI50 (NCI-H460 lung) [µM] | GI50 (LOX IMVI melanoma) [µM] | TGI (LOX IMVI melanoma) [µM] | GI50 (SNB-19 CNS) [µM] | GI50 (OVCAR-5 ovarian) | GI50 (HT29 colon) [µM]
CCCC1N2CCCCC2[C@@H]2c3[nH]c4ccccc4c3CCN12 (some centres not stated) | > 100 | > 100 µM | > 100 | > 100 | > 100 | > 100 | > 100 | – | – | – | – | – | – | – | – | – | – | –
N#CC(C#N)=C1Nc2ccccc2S1 | 79.7 | > 100 µM | > 100 | – | – | > 100 | > 100 | 33.6 | 35.9 | 29.2 | 82.1 µM | 39.1 µM | 32 | 42.5 | > 100 | 38.2 | – | –
NC(=O)NS(=O)(=O)c1ccc(N2N=C(C(F)(F)F)CC2c2cc(C(F)(F)F)cc(C(F)(F)F)c2)cc1 (configuration not stated) | 3.74 | – | 13.2 | 29.8 | 13 | 11.7 | 22.4 | 1.38 | – | 9.25 | 24.8 µM | 0.0862 µM | 3.47 | 5.76 | 19.1 | 8.03 | 13.7 µM | 3.1
CC(=O)O[C@H]1C(=O)[C@@]2(C)C(C(OC(=O)c3ccccc3)[C@]3(O)CC(OC(=O)[C@H](OC(=O)CCC(=O)O)C(NC(=O)c4ccccc4)c4ccccc4)C(C)=C1C3(C)C)C1(OC(C)=O)COC1C[C@@H]2O (some centres not stated) | < 0.01 | > 67.7 µM and 50 µM | > 100 | > 36.1 | – | > 100 | > 100 | – | – | – | 97.1 µM and 15.4 µM | 14 µM and 61.4 µM | – | – | > 100 | – | < 0.0146 µM and 0.0324 µM | –
C=C(C[C@](O)(C(=O)/C=C/c1ccc(Cl)cc1)C(=O)OC)c1ccccc1 | – | – | 3.2 | 13.1 | 4.65 | 6.31 | 12.8 | – | – | 2.33 | 6.21 µM | 1.56 µM | 2.44 | 0.719 | 2.24 | 3.69 | 3.48 µM | 1.9
Cn1c2ccccc2c2ccc3c(c21)C(=O)c1ccccc1C3=O | 36.1 | 31.4 µM | > 100 | > 100 | 39.5 | – | > 100 | – | – | – | 39.1 µM | – | – | – | 29.4 | – | – | –
Nc1nc(N(Cc2ccccc2)c2ccccc2)c2cn[nH]c2n1 | > 100 | > 100 µM | > 100 | – | > 100 | > 100 | > 100 | 1.68 | 4.16 | 4.72 | > 100 µM | 1.8 µM | 4.39 | 3.91 | > 100 | > 100 | – | 3.54
CC1(C)OC2=C(CC1Br)C(=O)C(=O)c1ccccc12 (configuration not stated) | 6.82 | 4.12 µM | 2.76 | – | 5.25 | 3.96 | – | 2.65 | 2.18 | 1.99 | 3.45 µM | 1.35 µM | 2.08 | 1 | 3.39 | – | – | 2.4
COc1cc(Nc2nc3ccccc3nc2-c2cccs2)cc(OC)c1OC | > 100 | – | > 10 | > 100 | > 100 | > 100 | > 100 | – | – | – | > 100 µM | – | – | – | > 100 | – | – | –
C/C(CC(=O)Nc1cc(C)ccc1C)=N\NC(=O)c1ccncc1 | > 100 | > 100 µM | > 100 | > 100 | > 100 | > 100 | – | – | – | – | > 100 µM | – | – | – | > 100 | – | – | –
O=c1cc(-c2ccccc2)oc2cc(OC/C(=N/O)c3ccccc3)ccc12 | > 50 | – | > 50 | > 50 | > 50 | > 50 | > 50 | 6.69 | – | 7.18 | 19.9 µM | 18.4 µM | 14.2 | 30.5 | > 50 | 18.2 | > 50 µM | 22.4
Cc1ccc(-c2nc3nc(-c4ccccc4)nc(N4CCCNCC4)c3o2)cc1 | – | 3.39 µM | 2.96 | 3.37 | 3.08 | 3.53 | 3.11 | – | 1.74 | 1.73 | 3.14 µM | 1.55 µM | 1.86 | 1.76 | 3.29 | 1.63 | 1.89 µM | 1.6
C[N+]1=C(/C=C/c2ccc(O)c3ncccc23)C(C)(C)c2ccccc21 | 10.3 | – | 5.73 | 12.6 | 12.6 | 3.8 | 14.4 | 2.48 | – | 3.43 | 14.9 µM | 0.58 µM | 1.77 | 2.32 | 5.74 | 3.74 | 2.42 µM | 3.19
CCOC(=O)/C(=C\c1ccccc1)C(=O)O | > 100 | > 100 µM | > 100 | > 100 | > 100 | > 100 | > 100 | – | – | – | – | – | – | – | > 100 | – | – | –
CCN(CC)CCCC(C)Nc1c2ccc(Cl)cc2nc2ccc(O)cc12 (configuration not stated) | 6.76 | – | 2.65 | 7.78 | 5.39 | 3.84 | 16.3 | 2.4 | – | 1.74 | 3.91 µM | 1.18 µM | 1.38 | 1.6 | 3.22 | 3.37 | 2.21 µM | 1.22
CNC(=O)C1CCc2nnc(-c3ccccc3)n21 (configuration not stated) | > 100 | > 100 µM | > 100 | – | – | > 100 | > 100 | – | – | – | > 100 µM | – | – | – | – | – | – | –
O/N=C/c1ncccc1C1OCCO1 | – | > 100 µM | > 100 | > 100 | > 100 | > 100 | > 100 | – | – | – | > 100 µM | – | – | – | > 100 | – | – | –
N#C/C(=C\c1ccc2ccccc2c1)c1ccccc1 | > 100 | 37.3 µM | 86.7 | > 100 | 74.6 | 34 | – | – | – | – | 75.7 µM | – | – | – | > 100 | – | – | –
COc1cc(C(=O)CBr)c(OC)cc1C | > 100 | > 100 µM | > 100 | > 100 | > 100 | – | > 100 | – | – | – | > 100 µM | – | – | – | > 100 | – | – | –
